In patent US9085587B2, “Inhibitors of hepatitis C virus” (priority 2010, dated 2015):
Read-outs that look alike come from different tables or passages of the source.

Experiments:
Assay type in all cases: cell-based
[1] = test system: HCV 1b replication (bicistronic genotype 1b replicon in Huh 7 cells); assay: HCV 1b replicon assay (1b_Huh-Luc/Neo-ET cell line, luciferase readout); conditions: Hepatitis C virus, Huh-7
Protocol: Biological activity of the compounds of the invention was determined using an HCV replicon assay. The 1b_Huh-Luc/Neo-ET cell line persistently expressing a bicistronic genotype 1b replicon in Huh 7 cells was obtained from ReBLikon GMBH. This cell line was used to test compound inhibition using luciferase enzyme activity readout as a measurement of compound inhibition of replicon levels.
On Day 1 (the day after plating), each compound was added in triplicate to the cells. Plates were incubated for 72 hours prior to running the luciferase assay. Enzyme activity was measured using a Bright-Glo Kit (cat. number E2620) manufactured by Promega Corporation. The following equation was used to generate a percent control value for each compound. % Control=(Average Compound Value/Average Control)*100
The EC50 value was determined using GraphPad Prism and the following equation: Y=Bottom+(Top-Bottom)/(1+10^((Log IC50−X)*HillSlope))
EC50 values of compounds were repeated several times in the replicon assay.

[2] = target: T1, HCV NS5B C316Y mutant (Hepatitis C virus genotype 1b, UniProt Q9WMX2, C2735Y); assay: Activity against HCV NS5B C316Y mutant; conditions: for EC50: read-out: Inhibiton of HCV NS5B C316Y mutant
T1 construct: HCV NS5B C316Y or S365A mutant as indicated; expressed in transfected cells
T1 sequence (Q9WMX2 2420-3010 C2735Y): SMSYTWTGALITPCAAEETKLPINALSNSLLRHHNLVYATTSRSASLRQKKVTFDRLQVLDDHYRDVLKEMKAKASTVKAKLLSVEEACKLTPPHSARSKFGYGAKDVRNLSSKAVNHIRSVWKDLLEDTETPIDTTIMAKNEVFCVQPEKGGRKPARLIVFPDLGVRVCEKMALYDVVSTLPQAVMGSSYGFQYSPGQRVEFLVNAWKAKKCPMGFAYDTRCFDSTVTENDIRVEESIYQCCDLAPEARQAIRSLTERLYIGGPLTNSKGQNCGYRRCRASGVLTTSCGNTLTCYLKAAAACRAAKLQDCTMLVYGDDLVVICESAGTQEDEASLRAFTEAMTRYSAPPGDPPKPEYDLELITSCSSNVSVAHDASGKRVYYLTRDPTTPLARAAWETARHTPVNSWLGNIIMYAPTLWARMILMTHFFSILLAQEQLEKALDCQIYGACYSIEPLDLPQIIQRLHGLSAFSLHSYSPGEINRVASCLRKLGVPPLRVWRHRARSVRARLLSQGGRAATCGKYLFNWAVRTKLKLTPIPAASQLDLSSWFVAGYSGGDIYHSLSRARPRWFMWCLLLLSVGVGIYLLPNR
Protocol: (§1) The biological activity against HCV 1b, 1a, or 2a is indicated as being *, **, ***, or ****, which corresponds to EC50 ranges of EC50>1000 nM, 100 nM<EC50≦1000 nM, 10 nM<EC50≦100 nM, or EC50≦10 nM, respectively. The biological activity against HCV NS5B C316Y or S365A mutant is indicated as being †, ††, or \\\, which corresponds to EC50 ranges of EC50>1000 nM, 200 nM<EC50≦1000 nM, […], respectively.

[3] = target: T2, HCV NS5B S365A mutant (Hepatitis C virus genotype 1b, UniProt Q9WMX2, S2784A); assay: Activity against HCV NS5B S365A mutant; conditions: for EC50: read-out: Inhibiton of HCV NS5B S365A mutant
T2 construct: HCV NS5B C316Y or S365A mutant as indicated; expressed in transfected cells
T2 sequence (Q9WMX2 2420-3010 S2784A): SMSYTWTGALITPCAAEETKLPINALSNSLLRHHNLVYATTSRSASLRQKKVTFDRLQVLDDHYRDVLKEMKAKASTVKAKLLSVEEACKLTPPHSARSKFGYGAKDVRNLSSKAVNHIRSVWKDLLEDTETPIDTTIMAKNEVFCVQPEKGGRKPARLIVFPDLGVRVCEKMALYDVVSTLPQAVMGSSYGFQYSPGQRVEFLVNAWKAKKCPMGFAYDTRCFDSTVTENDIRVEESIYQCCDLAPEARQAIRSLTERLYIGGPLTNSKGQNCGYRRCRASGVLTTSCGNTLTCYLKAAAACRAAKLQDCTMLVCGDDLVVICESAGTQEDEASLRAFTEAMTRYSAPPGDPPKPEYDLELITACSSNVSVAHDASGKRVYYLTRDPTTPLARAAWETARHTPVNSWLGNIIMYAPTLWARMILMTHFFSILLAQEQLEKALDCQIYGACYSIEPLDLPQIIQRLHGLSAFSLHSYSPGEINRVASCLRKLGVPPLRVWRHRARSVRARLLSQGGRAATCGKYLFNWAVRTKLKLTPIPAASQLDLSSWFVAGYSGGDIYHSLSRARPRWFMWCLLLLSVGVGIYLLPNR
Protocol: as §1

[4] = test system: HCV 2a; assay: HCV 2a replicon assay (similar to the 1b replicon assay); conditions: Hepatitis C virus; cell marked (HCV genotype 2a replicon); read-out: Inhibition of HCV genotype 2a replicon
Protocol: (§2) Compounds of the invention can inhibit multiple genotypes of HCV selected but not limited to 1a, 1b, 2a, 3a, and 4a. The EC50s are measured in the corresponding replicon assays that are similar to HCV 1b replicon assay as described above.
as §1

[5] = test system: HCV 1a; assay: HCV 1a replicon assay (similar to the 1b replicon assay); conditions: Hepatitis C virus; cell marked (HCV genotype 1a replicon); read-out: Inhibition of HCV genotype 1a replicon
Protocol: as §2, §1

[6] = numeric EC50, genotype 1b replicon, read-out: Inhibition of HCV genotype 1b replicon (EC50)
[7] = 1b_Huh-Luc/Neo-ET cell line, 72 hours, luciferase readout, read-out: EC50, concentration effective to produce a half-maximal inhibition of HCV 1b replication
[8] = class symbols, genotype 1b replicon, read-out: Inhibition of HCV genotype 1b replicon

`CNC(=O)c1c(-c2ccc(F)cc2)oc2cc3c(cc12)[C@H](C)CCCN3S(C)(=O)=O` (single isomer, unassigned) [Compound B15] was tested, and the EC50 [1, 6] was 5.5 nM, the “Inhibiton of HCV NS5B C316Y mutant” value [2] was “†††” and the “Inhibiton of HCV NS5B S365A mutant” value [3] was “†††”.

`CNC(=O)c1c(-c2ccc(Oc3ccc(F)cc3)cc2)oc2cc3c(cc12)[C@H](C)OC(C)(C)CN3S(C)(=O)=O` (single isomer, unassigned) [Compound B176] was tested, and the EC50 [2] was 200 to 1000 nM and the EC50 [3] was 200 to 1000 nM.

For `CNC(=O)c1c(-c2ccc(F)cc2)oc2cc3c(cc12)[C@H](C)N(C)C(=O)CN3S(C)(=O)=O` (single isomer, unassigned) [Compound B179], the EC50 [3] was 200 to 1000 nM.

In the case of `CNC(=O)c1c(-c2ccc(F)cc2)oc2cc3c(cc12)[C@H](C)OC(C)(C)CN3S(C)(=O)=O` (single isomer, unassigned) [Compound B184], the EC50 [2] is reported as over 1000 nM and the EC50 [3] is reported as 200 to 1000 nM.

In the case of `CNC(=O)c1c(-c2ccc(Oc3ccc(F)cc3)cc2)oc2cc3c(cc12)[C@H](C)OC1(CC1)CN3S(C)(=O)=O` (single isomer, unassigned) [Compound B187], the EC50 [2] is reported as over 1000 nM and the EC50 [3] is reported as over 1000 nM.

For `CNC(=O)c1c(-c2ccc(F)cc2)oc2cc3c(cc12)[C@H](C)OC1(CC1)CN3S(C)(=O)=O` (single isomer, unassigned) [Compound B193], the EC50 [2] was 200 to 1000 nM and the EC50 [3] was 200 to 1000 nM.

Work on `CNC(=O)c1c(-c2ccc(F)cc2)oc2cc3c(cc12)C=CCCN3S(C)(=O)=O` [Compound B12] yielded an EC50 [4] of 100 to 1000 nM.

For `CS(=O)(=O)N1CCCCc2cc3c(C(N)=O)c(-c4ccc(F)cc4)oc3cc21` [Compound B13], the EC50 [4] was over 1000 nM.

Work on `CN(C)C(=O)c1c(-c2ccc(F)cc2)oc2cc3c(cc12)CCCCN3S(C)(=O)=O` [Compound B14] yielded an EC50 [4] of over 1000 nM.

`CS(=O)(=O)N1CCCCc2cc3c(C(=O)NC4CC4)c(-c4ccc(F)cc4)oc3cc21` [Compound B41] gave an EC50 [4] of over 1000 nM.

Work on `CN(C)CCNC(=O)c1c(-c2ccc(F)cc2)oc2cc3c(cc12)CCCCN3S(C)(=O)=O` [Compound B42] yielded an EC50 [4] of over 1000 nM.

For `CS(=O)(=O)N1CCCCc2cc3c(C(=O)NCC#N)c(-c4ccc(F)cc4)oc3cc21` [Compound B43], the EC50 [4] was over 1000 nM.

In the case of `CNC(=O)c1c(-c2ccc(F)cc2)oc2cc3c(cc12)[C@@H](C)OCCN3S(C)(=O)=O` [Compound B44], the EC50 [4] is reported as 100 to 1000 nM.

In the case of `CNC(=O)c1c(-c2ccc(F)cc2)oc2cc3c(cc12)[C@H](C)OCCN3S(C)(=O)=O` [Compound B45], the EC50 [1, 6] is reported as 3 nM, the “Inhibiton of HCV NS5B C316Y mutant” value [2] is reported as “†††” and the “Inhibiton of HCV NS5B S365A mutant” value [3] is reported as “†††”.

Compound `C=C1CCCN(S(C)(=O)=O)c2cc3nc(-c4ccc(F)cc4)c(C(=O)NC)n3cc21` [Compound B61] has an EC50 [4] of over 1000 nM.

`CNC(=O)c1c(-c2ccc(F)cc2)nc2cc3c(cn12)C(C)=CCCN3S(C)(=O)=O` [Compound B62] showed an EC50 [4] of over 1000 nM.

With `CS(=O)(=O)N1CCCCc2cc3c(-c4ncc[nH]4)c(-c4ccc(F)cc4)oc3cc21` [Compound B67] the EC50 [3] was 200 to 1000 nM.

For `C=C1CCCCN(S(C)(=O)=O)c2cc3oc(-c4ccc(F)cc4)c(C(=O)NC)c3cc21` [Compound B75], the EC50 [4] was 100 to 1000 nM.

Work on `CNC(=O)c1c(-c2ccc(F)cc2)oc2cc3c(cc12)/C=C\CCCN3S(C)(=O)=O` [Compound B114] yielded an EC50 [5] of 100 to 1000 nM.

`CNC(=O)c1c(-c2ccc(F)cc2)oc2cc3c(cc12)C(C)N(CCO)CCN3S(C)(=O)=O` (stereo not drawn) [Compound B145] was tested, and the EC50 [3] was 200 to 1000 nM.

`CC1c2cc3c(-c4ncc[nH]4)c(-c4ccc(F)cc4)oc3cc2N(S(C)(=O)=O)CCN1C` (stereo not drawn) [Compound B171] was tested, and the EC50 [3] was 200 to 1000 nM.

For `CC1OCCN(S(C)(=O)=O)c2cc3oc(-c4ccc(F)cc4)c(-c4ncc[nH]4)c3cc21` (stereo not drawn) [Compound B197], the EC50 [3] was 200 to 1000 nM.

Compound `CNC(=O)c1c(-c2ccc(F)cc2)oc2cc3c(cc12)[C@H](C)O[C@H](COC(=O)[C@@H](N)Cc1ccccc1)CN3S(C)(=O)=O` [Compound B278] has an EC50 [1, 7] of at most 10 nM and an EC50 [1, 8] of under 10 nM.

`CNC(=O)c1c(-c2ccc(F)cc2)oc2cc3c(cc12)[C@H](C)O[C@H](COC[C@H](O)CO)CN3S(C)(=O)=O` [Compound B279] was tested, and the EC50 [1, 7] was 10 to 100 nM and the EC50 [1, 8] was 10 to 100 nM.

For `CNC(=O)c1c(-c2ccc(F)cc2)oc2cc3c(cc12)[C@H](C)O[C@H](COC(=O)[C@@H](N)[C@@H](C)O)CN3S(C)(=O)=O` [Compound B280], the EC50 [1, 7] was at most 10 nM and the EC50 [1, 8] was under 10 nM.

With `CNC(=O)c1c(-c2ccc(F)cc2)oc2cc3c(cc12)[C@H](C)O[C@H](COC(=O)[C@@H](N)CO)CN3S(C)(=O)=O` [Compound B281] the EC50 [1, 7] was at most 10 nM and the EC50 [1, 8] was under 10 nM.

In the case of `CNC(=O)c1c(-c2ccc(F)cc2)oc2cc3c(cc12)[C@H](C)O[C@H](COC(=O)[C@H](N)C(C)C)CN3S(C)(=O)=O` [Compound B282], the EC50 [1, 7] is reported as at most 10 nM and the EC50 [1, 8] is reported as under 10 nM.

Work on `CN/C(=N\O)c1c(-c2ccc(F)cc2)oc2cc3c(cc12)[C@H](C)O[C@H](CS(C)(=O)=O)CN3S(C)(=O)=O` [Compound B283] yielded an EC50 [1, 8] of 100 to 1000 nM.

Work on `CN/C(=N\OC)c1c(-c2ccc(F)cc2)oc2cc3c(cc12)[C@H](C)O[C@H](CS(C)(=O)=O)CN3S(C)(=O)=O` [Compound B284] yielded an EC50 [1, 8] of 100 to 1000 nM.

`CNC(=O)c1c(-c2ccc(F)cc2)oc2cc3c(cc12)[C@H](C)O[C@H](CO[C@H]1CCOC1)CN3S(C)(=O)=O` [Compound B285] was tested, and the EC50 [1, 7] was at most 10 nM and the EC50 [1, 8] was under 10 nM.

Compound `CNC(=O)c1c(-c2ccc(F)cc2)oc2cc3c(cc12)[C@H](C)O[C@H](CO[C@@H]1CCOC1)CN3S(C)(=O)=O` [Compound B286] has an EC50 [1, 7] of at most 10 nM and an EC50 [1, 8] of under 10 nM.

For `CNC(=O)c1c(-c2ccc(F)cc2)oc2cc3c(cc12)[C@H](C)O[C@@H](CS(C)(=O)=O)CN3S(C)(=O)=O` [Compound B287], the EC50 [1, 7] was 10 to 100 nM and the EC50 [1, 8] was 10 to 100 nM.
